Assays:
[1] = Mean surviving fraction of V79 cells following a 1-h exposure to H2O2.; assay type: functional, Cricetulus griseus
[2] = Mean surviving fraction of V79 cells following a 12-Gy dose of radiation.; assay type: functional, Cricetulus griseus
[3] = test system: V79; details: Cricetulus griseus
[4] = test system: V79; details: Cricetulus griseus; remark: listed apart in the source
[5] = Compound was evaluated for mean surviving fraction of Chinese hamster V79 cells following a 1-h exposure to H2O2.; assay type: functional, Cricetulus griseus
[6] = Compound was evaluated for mean surviving fraction of Chinese hamster V79 cells following a 12-Gy dose of radiation.; assay type: functional, Cricetulus griseus

| Compound | H2O2 prot [1] | Radiation prot [2] | further results |
| --- | --- | --- | --- |
| CC1(C)C=C(C(=O)NCCCN2C(=O)c3ccccc3C2=O)C(C)(C)N1O | 2.2 | 1.3 | – |
| CC1(C)C=C(C[P+](c2ccccc2)(c2ccccc2)c2ccccc2)C(C)(C)N1[O] | – | – | Radiation prot [3]: 0.72 |
| CC1(C)C=C(C(=O)NCCCN2C(=O)c3ccccc3C2=O)C(C)(C)N1 | 1.1 | 1.9 | – |
| CC(C)(C)NCC1=CC(C)(C)N([O])C1(C)C | – | – | Radiation prot [3]: 19.3; H2O2 prot [4]: 2 |
| CC1(C)CC(=O)C(C)(C)N1[O] | – | – | Radiation prot [3]: 10.2; H2O2 prot [4]: 0.9 |
| CC1(C)C=C(C(=O)NCCCO)C(C)(C)N1[O] | – | – | H2O2 prot [4]: 1.1 |
| CC1(C)C=C(C(=O)O)C(C)(C)N1[O] | 1 | – | – |
| CC1(C)C=C(CCNC(=N)N)C(C)(C)N1[O] | – | – | Radiation prot [3]: 1 |
| CN1C(C)(C)C=C(C=O)C1(C)C | – | 0.6 | – |
| CC1(C)CC(C(=O)NCCCN2C(=O)c3ccccc3C2=O)C(C)(C)N1O (stereo not given) | – | 1.26 | – |
| CCN(CC)CC1=CC(C)(C)N([O])C1(C)C | – | – | Radiation prot [3]: 17.2 |
| CCCCN(CCCC)CC1=CC(C)(C)N([O])C1(C)C | – | – | H2O2 prot [4]: 3.2 |
| CC1(C)CC(=O)CC(C)(C)N1[O] | 1.1 | 7.1 | – |
| CC1(C)CCC(C)(C)N1O | – | – | H2O2 prot [5]: 2.3; Radiation prot [6]: 0.7 |
| CC1(C)C=C(CNCc2ccccc2)C(C)(C)N1[O] | – | – | Radiation prot [3]: 5.2; H2O2 prot [4]: 2 |
| CC1(C)C=C(CN2CCCCC2)C(C)(C)N1 | – | 0.95 | – |
| CC1(C)CC(O)CC(C)(C)N1[O] [TEMPOL] | 2.5 | 5.1 | – |
| CC1(C)CC(=O)CC(C)(C)N1O | – | 0.68 | – |
| CC1(C)C=C(C(N)=O)C(C)(C)N1[O] | – | – | Radiation prot [3]: 10.7; H2O2 prot [4]: 1 |
| CCOC1CC(C)(C)N(O)C(C)(C)C1 | 1.6 | – | – |
| CC1(C)CC(O)C(C)(C)N1[O] (stereo not given) | – | – | Radiation prot [3]: 2.9; H2O2 prot [4]: 1.4 |
| CC1(C)CC(O)CC(C)(C)N1O [TEMPOL HYDROXYLAMINE] | – | 1.05 | – |
| CN(CC1=CC(C)(C)N([O])C1(C)C)C12CC3CC(CC(C3)C1)C2 | – | – | H2O2 prot [4]: 3.3 |

| Compound | H2O2 prot [1] | Radiation prot [2] | further results |
| --- | --- | --- | --- |
| CC1(C)CC(=O)C(C)(C)N1O | 1.1 | 1 | – |
| CCCCN(CCCC)C1CC(C)(C)N([O])C(C)(C)C1 | – | – | H2O2 prot [4]: 2.9 |
| CC1(C)CC(N)C(C)(C)N1[O] (stereo not given) | 1.1 | 12.9 | – |
| CN(C)CC1=CC(C)(C)N([O])C1(C)C | – | – | Radiation prot [3]: 13.9; H2O2 prot [4]: 2.1 |
| CC1(C)C=C(CN2CCCC2)C(C)(C)N1O | – | 28.3 | – |
| CC1(C)C=C(CN2Cc3ccccc3C2)C(C)(C)N1[O] | – | – | Radiation prot [3]: 3.9 |
| CC1(C)CC(NC2CC(C)(C)N(O)C(C)(C)C2)CC(C)(C)N1O.Cl | 1.9 | 1.4 | – |
| CC1(C)C=C(CO)C(C)(C)N1 | 0.9 | 1.5 | – |
| CC1=[N+]([O-])C(C)(C)CC1 | 0.8 | 1.1 | – |
| CC1(C)C=C(CN2C(=O)c3ccccc3C2=O)C(C)(C)N1O | 3.3 | 0.49 | – |
| CC(=O)C1=CC(C)(C)N(O)C1(C)C | 2.7 | 0.15 | – |
| CN(C)CC1=CC(C)(C)N(O)C1(C)C | – | 16 | – |
| CCOCC1=CC(C)(C)N([O])C1(C)C | – | – | H2O2 prot [4]: 1.3 |
| CC1(C)CC(N2C(=O)c3ccccc3C2=O)CC(C)(C)N1O | 1.5 | – | – |
| CC1(C)CC(=O)CC(C)(C)N1 | 0.5 | 1.1 | – |
| CC1(C)CC(NS(C)(=O)=O)CC(C)(C)N1O | – | 0.77 | – |
| CC1(C)C=C(C=O)CC(C)(C)N1O | – | 1.5 | – |
| CC1=[N+]([O-])C(C)CC1 (stereo not given) | 1.1 | 0.91 | – |
| CC1(C)CC(O)CC(C)(C)N1 | 0.4 | 0.9 | – |
| CC1(C)C=C(C(=O)NCCCN)C(C)(C)N1[O] | – | – | H2O2 prot [4]: 1.1 |
| CC1(C)C=C(C=O)CC(C)(C)N1 | – | 0.4 | – |
| CC1(C)CCC(C)(C)N1[O] | 0.9 | 4.6 | – |
| CC(=O)C1=CC(C)(C)NC1(C)C | 1.3 | 0.63 | – |

| Compound | H2O2 prot [1] | Radiation prot [2] | further results |
| --- | --- | --- | --- |
| CC1(C)C=C(CNC23CC4CC(CC(C4)C2)C3)C(C)(C)N1 | 1.9 | 1.4 | – |
| COC(=O)C1=CC(C)(C)N([O])C1(C)C | – | – | Radiation prot [3]: 0.94; H2O2 prot [4]: 1.5 |
| CC1(C)C=C(CNC2CCCCC2)C(C)(C)N1[O] | – | – | Radiation prot [3]: 4.4 |
| CN(CC1=CC(C)(C)N([O])C1(C)C)Cc1ccccc1 | – | – | H2O2 prot [4]: 2 |
| CC1(C)C=C(C=O)C(C)(C)N1[O] | – | – | Radiation prot [3]: 2.7; H2O2 prot [4]: 1.3 |
| CC1(C)CC(C(N)=O)C(C)(C)N1[O] (stereo not given) | 1.7 | 11.2 | – |
| CC1(C)CC(N2C(=O)c3ccccc3C2=O)CC(C)(C)N1 | 0.8 | 1.7 | – |
| CCCCNCC1=CC(C)(C)N([O])C1(C)C | – | – | Radiation prot [3]: 3.96; H2O2 prot [4]: 2.5 |
| CC1(C)CC(CO)C(C)(C)N1[O] (stereo not given) | – | – | Radiation prot [3]: 4.7; H2O2 prot [4]: 1.1 |
| CC1(C)CCCC(C)(C)N1O | 1.5 | 0.68 | – |
| CC1(C)C=C(CN2CCCC2)C(C)(C)N1 | 1 | 0.34 | – |
| CC1(C)C=C(CN2CCCCC2)C(C)(C)N1[O] | – | – | Radiation prot [3]: 19.1 |
| CC(=O)NC1CC(C)(C)N(O)C(C)(C)C1 | 1.8 | 0.85 | – |
| CC1(C)C=C(CO)C(C)(C)N1[O] | – | – | Radiation prot [3]: 2.6; H2O2 prot [4]: 1.8 |
| CC1(C)C=C(CNC23CC4CC(CC(C4)C2)C3)C(C)(C)N1O | 2.5 | 1.8 | – |
| CCCC[N+](CCCC)(CCCC)CC1=CC(C)(C)N([O])C1(C)C | – | – | Radiation prot [3]: 0.69; H2O2 prot [4]: 1.1 |
| CC1(C)CC(N)CC(C)(C)N1[O] [TEMPAMINE] | 2.8 | 18.5 | – |
| CC1(C)C=C(CN2CCCC2)C(C)(C)N1[O] | – | – | Radiation prot [3]: 21.4 |
| CC1(C)C=C(C(=O)NCC(=O)O)C(C)(C)N1[O] | – | – | Radiation prot [3]: 0.98; H2O2 prot [4]: 0.9 |
| CN(C)CC1=CC(C)(C)NC1(C)C | – | 0.95 | – |
| CC1(C)CC(CN)C(C)(C)N1[O] (stereo not given) | 0.7 | 13.7 | – |
| CC1(C)C=C(CNC23CC4CC(CC(C4)C2)C3)C(C)(C)N1[O] | – | – | H2O2 prot [4]: 3.3 |
| CC1(C)C=C(C(=O)NCCO)C(C)(C)N1[O] | – | – | H2O2 prot [4]: 1.2 |

| Compound | H2O2 prot [1] | Radiation prot [2] | further results |
| --- | --- | --- | --- |
| CC1(C)C=C(C=O)C(C)(C)N1O | 2.7 | 0.13 | – |
| CC(=O)C1=CC(C)(C)N([O])C1(C)C | – | 4.8 | – |
| CC1(C)C=C(CCSC(=N)N)C(C)(C)N1[O] | – | – | Radiation prot [3]: 7.5; H2O2 prot [4]: 2.2 |
| CC1(C)C=C(CC[Se]C(=N)N)C(C)(C)[NH+]1[O-] (stereo not given) | 1.3 | – | – |
| CCN(CC)CC1=CC(C)(C)N(O)C1(C)C | – | 0.96 | – |
| CC[N+](CC)(CC)CC1=CC(C)(C)N([O])C1(C)C | – | – | Radiation prot [3]: 1.2 |
| CC1(C)C=C(CO)C(C)(C)N1O | 3.1 | 0.92 | – |
| CC1(C)C=C(C(=O)NCCCN)C(C)(C)N1 | – | 0.52 | – |
| CCOCC1=CC(C)(C)N(O)C1(C)C | 3.2 | – | – |
| CC1(C)C=C(C=O)C(C)(C)N1 | 0.9 | 0.07 | – |
| CC1(C)CCC=[N+]1[O-] | 0.9 | 0.93 | – |
| CC1(C)C=C(C=O)CC(C)(C)N1[O] | – | – | Radiation prot [3]: 6.1; H2O2 prot [4]: 0.8 |
| CN(CC1=CC(C)(C)N(O)C1(C)C)C12CC3CC(CC(C3)C1)C2 | 2.6 | – | – |
| CC1(C)C=C(C(=O)NCCCN)C(C)(C)N1O | 1 | – | – |
| CCOC1CC(C)(C)N([O])C(C)(C)C1 | – | – | H2O2 prot [4]: 1.9 |
| CC1(C)C=C(NC(N)=O)C(C)(C)N1[O] | – | – | H2O2 prot [4]: 1.2 |
| CC1(C)CCCC(C)(C)N1[O] | 3.5 | 4.2 | – |
| CN(C)CCCNC(=O)C1=CC(C)(C)N([O])C1(C)C | – | – | Radiation prot [3]: 15 |
| CC(C)(C)NCC1=CC(C)(C)N(O)C1(C)C | 2.1 | 1.2 | – |
| CC1(C)CC(C(=O)O)C(C)(C)N1[O] (stereo not given) | 1 | – | – |
| CC1(C)C=C(CN2CCCCC2)C(C)(C)N1O | – | 30 | – |
| CC1(C)C=C(CNC23CC4CC(CC(C4)C2)C3)CC(C)(C)N1O | 2.1 | – | – |
| CC1(C)CC(N)CC(C)(C)N1O | 1 | 1.1 | – |
